{"source": "patent US20200338158A1", "about": "“Therapeutic Drug for Non-Alcoholic Fatty Liver Disease” (Shanghai Hep Pharmaceutical Co., Ltd., priority 2017, published 2020)", "assay_type_in_all_cases": "in vivo", "key": {"[1]": {"tested_on": "C57BL6 mice", "experiment": "Liver biochemistry test, mouse NASH model", "excerpt": "(§1) In this example, a mouse nonalcoholic steatohepatitis (NASH) model was used to evaluate the effect of hepalatide (L47) on pathological changes and metabolism level of NASH, and to determine whether L47 can improve the pathological changes of NASH, so as to provide reference for pharmacodynamic evaluation of L47 before clinical treatment.\nHydroxyproline and free fatty acid (FFA) kits (Cat No.: A030-3 and A042-1, respectively) were provided by Nanjing Jiancheng Bioengineering Research Institute;\nTriglyceride (TG) and cholesterol (TC) (Cat No.: E1013-105 and E1015 respectively) were provided by Applygen Technologies Inc.\nAt week 8 and week 16, liver was taken and levels of TG, TC, free fatty acid (FFA), hydroxyproline (HYP) were measured."}, "[2]": {"tested_on": "C57BL6 mice", "experiment": "Mouse NASH model, overall conclusions at week 8 and week 16", "excerpt": "as §1\n4.1.1 Normal control group (Control): common block feed+common water, 14 mice in total, wherein 6 mice were sacrificed at week 8, and 8 mice were sacrificed at week 16.\n(§2) 4.1.2 Model group (HFC-F/G): high fat feed+high sugar water, 9 mice in total, wherein 3 mice were sacrificed at week 8, and 6 mice were sacrificed at week 16.\n(§3) 4.1.3 Low dose group 1 (HFC-F/G+HL1): high fat feed+high sugar water+L47 20 mg/kg (10 mg/kg*2/d, i.e. once in the morning and once in the afternoon), 10 mice in total, wherein 3 mice were sacrificed at week 8, and 7 mice were sacrificed at week 16.\n(§4) 4.1.4 High dose group 1 (HFC-F/G+HH1): high fat feed+high sugar water+L47 60 mg/kg (30 mg/kg*2/d, i.e. once in the morning and once in the afternoon), 10 mice in total, wherein 3 mice were sacrificed at week 8, and 7 mice were sacrificed at week 16.\n(§5) 4.1.5 Low dose group 2 (HFC-F/G+HL2): high fat feed+high sugar water+L47 20 mg/kg (10 mg/kg*2/d, i.e. once in the morning and once in the afternoon, with pharmacologic intervention started 8 weeks after initiation of the experiment), 5 mice in total, which are sacrificed after 16 weeks.\n(§6) 4.1.6 High dose group 2 (HFC-F/G+HH2): high fat feed+high sugar water+L47 60 mg/kg (30 mg/kg*2/d, i.e. once in the morning and once in the afternoon, with pharmacologic intervention started 8 weeks after initiation of the experiment), 5 mice in total, which are sacrificed after 16 weeks.\nThe concentration of L47 in low dose group was 5 mg/ml; the concentration of L47 in high dose group was 10 mg/ml.\n(§7) Route of administration: subcutaneous injection."}, "[3]": {"tested_on": "C57BL6 mice", "experiment": "Liver weight and gross liver observation, mouse NASH model (high fat feed + high sugar water)", "excerpt": "as §1, §2, §3, §4, §5, §6, §7\nAt week 8 and week 16, liver was separated by dissection after anesthesia and blood collection, and pathological changes of liver tissues and accumulation of abdominal fat were grossly observed by the naked eye."}, "[4]": {"tested_on": "C57BL6 mice", "experiment": "Glucose tolerance, fasting insulin and insulin resistance index, mouse NASH model", "details": "for blood glucose level in glucose tolerance test: treatment groups vs model group; for fasting serum insulin level / insulin resistance HOMA-RI level: vs model group", "excerpt": "As used herein, homeostatic model assessment (HOMA) index may refer HOMA-IR (quantifying the level of insulin resistance) index. The value of HOMA-IR can be calculated by following the formula of: HOMA-IR=[(blood glucose expressed in mmol/L)×(serum insulin expressed in mU/L)]/22.5.\nas §1\n5.2.3 Insulin ELISA Test Kit, Cat No.: EZRMI-13K, Millipore Company.\nAt week 8 and week 16, fasting blood glucose and glucose tolerance (subcutaneous injection of glucose: 2.5 mg/g, preparation concentration: 250 mg/ml) were measured in mice, blood glucose levels were measured at 0, 30, 60, 90 and 120 min after the injection of glucose, and insulin resistance index was calculated according to the fasting insulin level."}, "[5]": {"details": "week 8, treatment groups (HL1, HH1) vs model group"}, "[6]": {"details": "overall conclusion, week 8 and week 16"}, "[7]": {"details": "overall conclusion, effect better as dose and administration duration increased"}, "[8]": {"details": "overall conclusion, in a short period of time, dose-dependent"}, "[9]": {"details": "week 16, HL2 (L47 10 mg/kg*2/d s.c., started after 8 weeks)"}}, "note": "“Also recorded” adds a separate entry of the source."}
{"substance": "hepalatide [L47]", "values": [{"measurement": "liver FFA level", "setting": "[1]; week 8, high dose group vs model group, p<0.05", "result": "statistical significance"}, {"measurement": "liver FFA level", "setting": "[1]; [5]", "result": "decreasing trends; also recorded: decreased significantly"}, {"measurement": "liver hydroxyproline level", "setting": "[1]; [5]", "result": "decreasing trends; also recorded: reduced"}, {"measurement": "liver TC level", "setting": "[1]; week 8, treatment groups (HL1, HH1) vs model group, p<0.001, p≤0.001", "result": "significantly decreased"}, {"measurement": "liver TG level", "setting": "[1]; week 8, treatment groups (HL1, HH1) vs model group, p≤0.001, p<0.001", "result": "significantly decreased; also recorded: decreased significantly"}, {"measurement": "liver hydroxyproline level", "setting": "[1]; week 16, HH1 (L47 30 mg/kg*2/d s.c. from start)", "result": "higher"}, {"measurement": "liver hydroxyproline level", "setting": "[1]; week 16, HL1 (L47 10 mg/kg*2/d s.c. from start)", "result": "higher"}, {"measurement": "liver TC level", "setting": "[1]; week 16, treatment groups (HL1, HH1, HL2, HH2) vs model group, p<0.001 each", "result": "significantly decreased"}, {"measurement": "liver FFA level", "setting": "[1]; week 16, treatment groups vs model group", "result": "decreased; also recorded: decreasing trends"}, {"measurement": "liver TG level", "setting": "[1]; week 16, vs model group, HH1 (L47 30 mg/kg*2/d s.c. from start)", "result": "decreasing trends"}, {"measurement": "liver hydroxyproline level", "setting": "[1]; week 16, vs model group, HH2 (L47 30 mg/kg*2/d s.c., started after 8 weeks), more significant, p<0.05", "result": "decreased"}, {"measurement": "liver TG level", "setting": "[1]; week 16, vs model group, HH2 (L47 30 mg/kg*2/d s.c., started after 8 weeks), p<0.05", "result": "significantly decreased"}, {"measurement": "liver TG level", "setting": "[1]; week 16, vs model group, HL1 (L47 10 mg/kg*2/d s.c. from start)", "result": "decreasing trends"}, {"measurement": "liver hydroxyproline level", "setting": "[1]; week 16, vs model group, HL2 (L47 10 mg/kg*2/d s.c., started after 8 weeks)", "result": "decreased"}, {"measurement": "liver TG level", "setting": "[1]; week 16, vs model group, HL2 (L47 10 mg/kg*2/d s.c., started after 8 weeks), p<0.01", "result": "significantly decreased"}, {"measurement": "levels of ALB, HDL and LDL", "setting": "[2]; [6]", "result": "reduce"}, {"measurement": "levels of VLDL and ALP", "setting": "[2]; [6]", "result": "no effect"}, {"measurement": "blood glucose and insulin level", "setting": "[2]; [7]", "result": "effectively reduce"}, {"measurement": "insulin resistance", "setting": "[2]; [7]", "result": "improve"}, {"measurement": "apoptosis (liver)", "setting": "[2]; [8]", "result": "improve"}, {"measurement": "fibrosis degree of liver", "setting": "[2]; [8]", "result": "effectively reduce"}, {"measurement": "levels of ALT and AST", "setting": "[2]; [8]", "result": "effectively reduce"}, {"measurement": "subcutaneous fat, liver fat and serum fat deposition", "setting": "[2]; overall conclusion, in a short period of time, dose-dependent, improvement reduced as treatment duration extended", "result": "effectively reduce"}, {"measurement": "liver fat accumulation, liver cell damage, insulin resistance and liver fibrosis", "setting": "[2]; short-term (8 weeks) co-administration or delayed administration, to various degrees", "result": "improve"}, {"measurement": "general observation of liver change (color, weight)", "setting": "[3]; treatment groups vs model group, week 8 implied", "result": "improved"}, {"measurement": "liver weight", "setting": "[3]; week 8, each group (HL1, HH1)", "result": "no significant difference"}, {"measurement": "general observation of liver change (color, weight)", "setting": "[3]; week 16, low dose group 2 and high dose group 2 vs model group", "result": "liver colors tended to be normal"}, {"measurement": "liver weight", "setting": "[3]; week 16, vs model group, HL2 (L47 10 mg/kg*2/d s.c., started after 8 weeks), p<0.05", "result": "decreased significantly"}, {"measurement": "blood glucose level in glucose tolerance test", "setting": "[4]; week 8, 90 min after glucose, p<0.05, p<0.01", "result": "significantly decreased"}, {"measurement": "blood glucose level in glucose tolerance test", "setting": "[4]; week 8, 120 min after glucose, p<0.01", "result": "significantly decreased"}, {"measurement": "blood glucose level in glucose tolerance test", "setting": "[4]; week 16, 90 min after glucose", "result": "decreasing trend"}, {"measurement": "blood glucose level in glucose tolerance test", "setting": "[4]; week 16, 120 min after glucose", "result": "decreasing trend"}, {"measurement": "blood glucose", "setting": "[4]; week 16, treatment groups vs model group (conclusions)", "result": "decreased"}, {"measurement": "fasting serum insulin level", "setting": "[4]; week 16, HH1 (L47 30 mg/kg*2/d s.c. from start), p<0.001", "result": "significantly decreases"}, {"measurement": "insulin resistance HOMA-RI level", "setting": "[4]; week 16, HH1 (L47 30 mg/kg*2/d s.c. from start), p<0.05", "result": "significantly decreases"}, {"measurement": "insulin resistance HOMA-RI level", "setting": "[4]; week 16, HH2 (L47 30 mg/kg*2/d s.c., started after 8 weeks)", "result": "decreasing trend"}, {"measurement": "fasting serum insulin level", "setting": "[4]; week 16, HH2 (L47 30 mg/kg*2/d s.c., started after 8 weeks), p<0.001", "result": "significantly decreases"}, {"measurement": "fasting serum insulin level", "setting": "[4]; week 16, HL1 (L47 10 mg/kg*2/d s.c. from start), p<0.001", "result": "significantly decreases"}, {"measurement": "insulin resistance HOMA-RI level", "setting": "[4]; week 16, HL1 (L47 10 mg/kg*2/d s.c. from start), p<0.05", "result": "significantly decreases"}, {"measurement": "fasting serum insulin level", "setting": "[4]; [9]", "result": "decreasing trend"}, {"measurement": "insulin resistance HOMA-RI level", "setting": "[4]; [9]", "result": "no significant difference"}]}
